# Source: patent US9169254B2, “Spiroimidazolone derivative” (Chugai Seiyaku Kabushiki Kaisha, priority 2009, dated 2015)
# Target: T1, human PTH1 receptor (Homo sapiens, UniProt Q03431)
# T1 sequence (Q03431 27-593): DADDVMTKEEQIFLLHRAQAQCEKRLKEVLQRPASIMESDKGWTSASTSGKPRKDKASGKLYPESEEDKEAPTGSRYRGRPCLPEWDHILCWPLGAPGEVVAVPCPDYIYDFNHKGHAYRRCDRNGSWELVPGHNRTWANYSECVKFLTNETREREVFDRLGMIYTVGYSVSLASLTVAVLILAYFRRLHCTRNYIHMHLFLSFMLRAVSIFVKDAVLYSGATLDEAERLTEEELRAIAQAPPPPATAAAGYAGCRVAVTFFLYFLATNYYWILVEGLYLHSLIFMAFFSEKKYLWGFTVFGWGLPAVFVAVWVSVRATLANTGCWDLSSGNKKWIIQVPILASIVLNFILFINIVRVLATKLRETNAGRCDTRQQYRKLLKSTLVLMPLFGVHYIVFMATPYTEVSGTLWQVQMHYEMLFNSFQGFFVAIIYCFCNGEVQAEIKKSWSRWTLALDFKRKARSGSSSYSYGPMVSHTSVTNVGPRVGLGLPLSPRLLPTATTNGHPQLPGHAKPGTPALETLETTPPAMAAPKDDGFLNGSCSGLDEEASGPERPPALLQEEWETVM
# Assay: In vitro cAMP signal activity in HKRK-B7 cells (LLC-PK1 cells overexpressing the human PTH1 receptor)
# Assay type: cell-based
# Conditions: HKRK-B7 cells; compound at 1×10^−3 M; cAMP produced as percentage of that produced by hPTH(1-34) at 100 nM
row,SMILES,cAMP production activity (%)
1,"O=C1NC(C2CCCCC2)=NC12CCCN(S(=O)(=O)c1cccc(Cl)c1)C2 (centres unmarked) [Compound 71, 7-(3-chloro-benzenesulfonyl)-2-cyclohexyl-1,3,7-triaza-spiro[4.5]dec-1-en-4-one]",3.7
2,"CC(=O)N(C)c1ccc(CCS(=O)(=O)N2CCC3(CC2)N=C(c2cccc(OC(F)(F)F)c2)NC3=O)c(C)c1 [Compound 299, N-methyl-N-(3-methyl-4-{2-[4-oxo-2-(3-trifluoromethoxy-phenyl)-1,3,8-triaza-spiro[4.5]dec-1-ene-8-sulfonyl]-ethyl}-phenyl)-acetamide]",83
3,"Cc1cc(C(=O)N(C)C)ccc1CCS(=O)(=O)N1CCC2(CC1)N=C(c1cccc(OC(F)(F)F)c1)N=C2NCC1CCCCC1 [Compound 898, 4-{2-[4-(cyclohexylmethyl-amino)-2-(3-trifluoromethoxy-phenyl)-1,3,8-triaza-spiro[4.5]deca-1,3-diene-8-sulfonyl]-ethyl}-3,N,N-trimethyl-benzamide]",4.3
4,"O=C(N1CCOCC1)n1ccc2c(/C=C/S(=O)(=O)N3CCC4(CC3)N=C(C3CCCCC3)NC4=O)cccc21 [Compound 477, 2-cyclohexyl-8-{(E)-2-[1-(morpholine-4-carbonyl)-1H-indol-4-yl]-ethenesulfonyl}-1,3,8-triaza-spiro[4.5]dec-1-en-4-one]",31
5,"O=C1NC(C2CCCCCC2)=NC12CCN(S(=O)(=O)/C=C/c1cccc3c1ccn3C[C@H](O)CO)CC2 [Compound 240, 2-Cycloheptyl-8-{(E)-2-[1-((S)-2,3-dihydroxy-propyl)-1H-indol-4-yl]-ethenesulfonyl}-1,3,8-triaza-spiro[4.5]dec-1-en-4-one]",49
6,"O=C1NC(C2CCC(CCC(F)(F)F)CC2)=NC12CCN(S(=O)(=O)CCc1cccc3c1ccn3CCOC[C@H](O)[C@@H](O)CO)CC2 (stereo partly drawn) [Compound 823, 2-[4-(3,3,3-trifluoro-propyl)-cyclohexyl]-8-(2-{1-[2-((2S,3S)-2,3,4-trihydroxy-butoxy)-ethyl]-1H-indol-4-yl}-ethanesulfonyl)-1,3,8-triaza-spiro[4.5]dec-1-en-4-one]",103
7,"Cc1cc(NC[C@H](O)CO)ccc1CCS(=O)(=O)N1CCC2(CC1)N=C(C1CCCCC1)NC2=O [Compound 321, 2-Cyclohexyl-8-{2-[4-((S)-2,3-dihydroxy-propylamino)-2-methyl-phenyl]-ethanesulfonyl}-1,3,8-triaza-spiro[4.5]dec-1-en-4-one]",55
8,"[2H]C([2H])([2H])N(C(N)=O)c1cc(C)c(/C=C/S(=O)(=O)N2CCC3(CC2)N=C(c2ccc(F)c(C(F)(F)F)c2)NC3=O)c(C)c1 [Compound 1312, 1-(4-{(E)-2-[2-(4-fluoro-3-trifluoromethyl-phenyl)-4-oxo-1,3,8-triaza-spiro[4.5]dec-1-ene-8-sulfonyl]-vinyl}-3,5-dimethyl-phenyl)-1-[1,1,1-^2H3]methyl-urea]",105
9,Cc1cc2ccc1CCS(=O)(=O)N1CCC3(CC1)N=C(NC3=O)c1cc(cc(C(F)(F)F)c1)OCCCCCOCCNC2=O [Compound 1427],72
10,"Cc1cccc(CCCS(=O)(=O)N2CCC3(CC2)N=C(C2CCCCC2)NC3=O)c1 [Compound 316, 2-cyclohexyl-8-(3-m-tolyl-propane-1-sulfonyl)-1,3,8-triaza-spiro[4.5]dec-1-en-4-one]",20
11,"COc1ccc(-c2ccccc2CCS(=O)(=O)N2CCC3(CC2)N=C(C2CCCCC2)NC3=O)cn1 [Compound 339, 2-cyclohexyl-8-{2-[2-(6-methoxy-pyridin-3-yl)-phenyl]-ethanesulfonyl}-1,3,8-triaza-spiro[4.5]dec-1-en-4-one]",66
12,"O=C1NC(C2CCCCC2)=NC12CCN(S(=O)(=O)CCc1cccc3cc[nH]c13)CC2 [Compound 835, 2-Cyclohexyl-8-[2-(1H-indol-7-yl)-ethanesulfonyl]-1,3,8-triaza-spiro[4.5]dec-1-en-4-one]",50
13,"C=CCCCCC1=NC2(CCN([S@TB17](=O)(=O)/C=C/c3c(C)cc(N(C)C(N)=O)cc3C)CC2)C(=O)N1 [Compound 1119, 1-{4-[(E)-2-(2-hex-5-enyl-4-oxo-1,3,8-triaza-spiro[4.5]dec-1-ene-8-sulfonyl)-vinyl]-3,5-dimethyl-phenyl}-1-methyl-urea]",136
14,"O=C1NC(C2CCCCC2)=NC12CCN(S(=O)(=O)CCc1ccc(CCO)cc1)CC2 [Compound 280, 2-cyclohexyl-8-{2-[4-(2-hydroxy-ethyl)-phenyl]-ethanesulfonyl}-1,3,8-triaza-spiro[4.5]dec-1-en-4-one]",57
15,"Cc1cc(N(C)C(N)=O)cc(C)c1/C=C/S(=O)(=O)N1CCC2(CC1)N=C(CCCCCCCCCC(N)=O)NC2=O [Compound 1172, 10-(8-{(E)-2-[2,6-Dimethyl-4-(1-methyl-ureido)-phenyl]-ethenesulfonyl}-4-oxo-1,3,8-triaza-spiro[4.5]dec-1-en-2-yl)-decanoic amide]",73
16,"CC(=O)Nc1ccc(CCS(=O)(=O)N2CCC3(CC2)N=C(c2cccc(C)c2)NC3=O)c(C)c1 [Compound 145, N-{3-Methyl-4-[2-(4-oxo-2-m-tolyl-1,3,8-triaza-spiro[4.5]dec-1-ene-8-sulfonyl)-ethyl]-phenyl}-acetamide]",129
17,"COC(=O)c1cc(C)c(S(=O)(=O)N2CCC3(CC2)N=C(C2CCCCC2)NC3=O)s1 [Compound 63, 5-(2-cyclohexyl-4-oxo-1,3,8-triaza-spiro[4.5]dec-1-ene-8-sulfonyl)-4-methyl-thiophene-2-carboxylic acid methyl ester]",51

# More lines, now with the values ahead:
row,cAMP production activity (%),SMILES
1,104,"Cc1cc(N(C)C(N)=O)cc(C)c1CCS(=O)(=O)N1CCC2(CC1)N=C(C1CCC(C(F)(F)F)CC1)NC2=O (centres unmarked) [Compound 472, 1-(3,5-Dimethyl-4-{2-[4-oxo-2-(4-trifluoromethyl-cyclohexyl)-1,3,8-triaza-spiro[4.5]dec-1-ene-8-sulfonyl]-ethyl}-phenyl)-1-methyl-urea]"
2,72,"Cc1cc(CN2C(=O)NC(C)(C)C2=O)cc(C)c1/C=C/S(=O)(=O)N1CCC2(CC1)N=C(C1CCC(C)CC1)NC2=O (centres unmarked) [Compound 519, 3-(3,5-dimethyl-4-{(E)-2-[2-(4-methyl-cyclohexyl)-4-oxo-1,3,8-triaza-spiro[4.5]dec-1-ene-8-sulfonyl]-vinyl}-benzyl)-5,5-dimethyl-imidazolidine-2,4-dione]"
3,73,"CCCCC1CCC(C2=NC3(CCN(S(=O)(=O)/C=C/c4c(C)cc(C(=O)N5CCC(OCCO)CC5)cc4C)CC3)C(=O)N2)CC1 (centres unmarked) [Compound 1008, 2-(4-Butyl-cyclohexyl)-8-((E)-2-{4-[4-(2-hydroxy-ethoxy)-piperidine-1-carbonyl]-2,6-dimethyl-phenyl}-ethenesulfonyl)-1,3,8-triaza-spiro[4.5]dec-1-en-4-one]"
4,84,"CC[C@H]1CC[C@H](C2=NC3(CCN(S(=O)(=O)CCc4ccc(N)c(Cl)c4C)CC3)C(=O)N2)CC1 [Compound 1293, 8-[2-(4-Amino-3-chloro-2-methyl-phenyl)-ethanesulfonyl]-2-(4-ethyl-cyclohexyl)-1,3,8-triaza-spiro[4.5]dec-1-en-4-one]"
5,66,"COCCN(C(C)=O)c1ccc(/C=C/S(=O)(=O)N2CCC3(CC2)N=C(C2CCC(CCC(F)(F)F)CC2)NC3=O)c(C)c1 (centres unmarked) [Compound 542, N-(2-methoxy-ethyl)-N-[3-methyl-4-((E)-2-{4-oxo-2-[4-(3,3,3-trifluoro-propyl)-cyclohexyl]-1,3,8-triaza-spiro[4.5]dec-1-ene-8-sulfonyl}-vinyl)-phenyl]-acetamide]"
6,4.7,"Cc1cc(OC[C@H](O)CO)cc(C)c1/C=C/S(=O)(=O)N1CCC2(CC1)N=C(c1ccc(F)c(OC(F)(F)F)c1)NC2=O [Compound 1164, 8-{(E)-2-[4-((R)-2,3-Dihydroxy-propoxy)-2,6-dimethyl-phenyl]-ethenesulfonyl}-2-(4-fluoro-3-trifluoromethoxy-phenyl)-1,3,8-triaza-spiro[4.5]dec-1-en-4-one]"
7,87,"Cc1cc(C(=O)N2CCC(O)(CF)CC2)cc(C)c1/C=C/S(=O)(=O)N1CCC2(CC1)N=C(C1CCC(CCC(F)(F)F)CC1)NC2=O (centres unmarked) [Compound 990, 8-{(E)-2-[4-(4-fluoromethyl-4-hydroxy-piperidine-1-carbonyl)-2,6-dimethyl-phenyl]-ethenesulfonyl}-2-[4-(3,3,3-trifluoro-propyl)-cyclohexyl]-1,3,8-triaza-spiro[4.5]dec-1-en-4-one]"
8,38,"Cc1cc(NCCN(C)C)ccc1/C=C/S(=O)(=O)N1CCC2(CC1)N=C(C1CCCCC1)NC2=O [Compound 497, 2-cyclohexyl-8-{(E)-2-[4-(2-dimethylamino-ethylamino)-2-methyl-phenyl]-ethenesulfonyl}-1,3,8-triaza-spiro[4.5]dec-1-en-4-one]"
9,85,"Cc1cc(C(=O)N2CCN(C(N)=O)CC2)cc(C)c1/C=C/S(=O)(=O)N1CCC2(CC1)N=C(c1cccc(OC(F)(F)F)c1)NC2=O [Compound 396, 4-(3,5-dimethyl-4-{(E)-2-[4-oxo-2-(3-trifluoromethoxy-phenyl)-1,3,8-triaza-spiro[4.5]dec-1-ene-8-sulfonyl]-vinyl}-benzoyl)-piperazine-1-carboxylic acid amide]"
